What all share (format): biochemical
One test addresses T1, human proteinase 3 (Homo sapiens, UniProt P24158).
T1 construct: purchased Elastin Products Company, USA
T1 sequence (P24158 28-248): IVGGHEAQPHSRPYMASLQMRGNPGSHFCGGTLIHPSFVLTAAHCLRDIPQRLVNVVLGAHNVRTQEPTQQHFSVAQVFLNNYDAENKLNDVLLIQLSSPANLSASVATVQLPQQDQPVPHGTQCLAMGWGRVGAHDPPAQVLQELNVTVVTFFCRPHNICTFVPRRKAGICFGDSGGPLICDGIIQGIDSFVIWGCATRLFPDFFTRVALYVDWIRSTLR
Nature of the test: Inhibition of human proteinase 3 (Boc-Ala-Ala-Nva-SBzl). The conditions noted are these: for IC50: 10 nM enzyme, 1 mM substrate, 37° C., pH7.4, read-out: Human proteinase 3 (hPr3) IC50; for hNE/hPr3 selectivity: ratio of hPr3 IC50 to hNE IC50. As for the experimental part:
2.4. Inhibition of Human Proteinase 3
The inactivation of human proteinase 3 (Elastin Products Company, USA) by the peptides of the invention using synthetic tripeptidic substrate Boc-Ala-Ala-Nva-SBzl (Elastin Products Company, USA) was determined as follows:
The above substrate (1 mM), 4,4′-dithiodipyridine (250 μM) and human proteinase 3 (10 nM) were incubated at 37° C. with serial dilutions of the peptides (0.5% DMSO final) in assay buffer (50 mM Tris, pH7.4, 150 mM NaCl, 0.01% Tween20). The reaction process was followed by monitoring the change in absorbance at 340 nm for 30 minutes. Control assays with the same assay set-up as above, but without peptide, ran linearly. The dose-response data were fitted to the 4-parameter Hill equation providing the IC50 value using Graphpad (Prism 5).

Test [1] concerns the target T2, human neutrophil elastase (Homo sapiens, UniProt P08246).
T2 construct: purchased Serva Electrophoresis, Germany
T2 sequence (P08246 30-267): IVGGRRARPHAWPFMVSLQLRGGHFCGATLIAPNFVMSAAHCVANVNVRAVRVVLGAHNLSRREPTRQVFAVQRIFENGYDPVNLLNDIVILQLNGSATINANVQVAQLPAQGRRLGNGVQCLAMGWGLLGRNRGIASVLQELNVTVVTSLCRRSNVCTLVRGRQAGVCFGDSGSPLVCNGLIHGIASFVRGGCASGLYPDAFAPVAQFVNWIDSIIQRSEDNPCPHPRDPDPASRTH
Nature of the test: Inhibition of human neutrophil elastase (MeOSuc-AAPV-pNA hydrolysis). The conditions noted are these: 10 nM enzyme, 0.3 mM substrate, 37° C., pH 8; read-out: Human neutrophil elastase (hNE) IC50. As for the experimental part:
2.2. Inhibition of Human Neutrophil Elastase
The ability of the peptides of the invention to inhibit the hydrolysis activity of human neutrophil elastase (Serva Electrophoresis, Germany) using the synthetic tetrapeptidic substrate MeOSuc-AAPV-pNA (Bachem, Switzerland) was determined as follows:
The above substrate (0.3 mM) and human neutrophil elastase (10 nM) were incubated at 37° C. with serial dilutions of the peptides (1% DMSO final) in assay buffer (50 mM Tris, pH 8, 300 mM NaCl, 0.01% Tween20). The release of pNA was followed by monitoring the change in absorbance at 405 nm for 30 minutes. Control assays with the same assay set-up as above, but without peptide, ran linearly. The dose-response data were fitted to the 4-parameter Hill equation providing the IC50 value using Graphpad (Prism 5).

Test [2] has as its target T3, porcine pancreatic elastase (Sus scrofa, UniProt P00772).
T3 construct: purchased Sigma, USA
Nature of the test: Inhibition of porcine pancreatic elastase (MeOSuc-AAA-pNA hydrolysis). Conditions: for IC50: 15 nM enzyme, 1 mM substrate, 37° C., pH8, read-out: Porcine pancreatic elastase (PPE) IC50; for hNE/PPE selectivity: ratio of PPE IC50 to hNE IC50. As for the experimental part: 2.3. Inhibition of Porcine Pancreatic Elastase
The ability of the peptides of the invention to inhibit the hydrolysis activity of porcine pancreatic elastase (Sigma, USA) using the synthetic tripeptidic substrate MeOSuc-AAA-pNA (Bachem, Switzerland) was determined as follows:
The above substrate (1 mM) and […] porcine pancreatic elastase (15 nM) were incubated at 37° C. with serial dilutions of the peptides (0.5% DMSO final) in assay buffer (50 mM Tris, pH8, 100 mM NaCl, 0.01% Tween20). The release of pNA was followed by monitoring the change in absorbance at 405 nm for 30 minutes. Control assays with the same assay set-up as above, but without peptide, ran linearly. The dose-response data were fitted to the 4-parameter Hill equation providing the IC50 value using Graphpad (Prism 5).

The results in this text go back to patent publication US10723765B2, “Beta-hairpin peptidomimetics as selective elastase inhibitors” (POLYPHOR AG, priority 2013, dated 2020).

Non-standard residues stand in square brackets, D forms with d. Residues, ends and D or L forms follow the SMILES beside them. Gly(octyl) = CCCCCCCC[C@H](N)C(=O)O; hTyr = N[C@@H](CCc1ccc(O)cc1)C(=O)O; AllylGly = C=CC[C@H](N)C(=O)O; hLeu = CC(C)CC[C@H](N)C(=O)O A value given as a limit tells only on which side of the number the result lay.

The term IC50 denotes the concentration that gives 50% inhibition.

T3 sequence (P00772 27-266): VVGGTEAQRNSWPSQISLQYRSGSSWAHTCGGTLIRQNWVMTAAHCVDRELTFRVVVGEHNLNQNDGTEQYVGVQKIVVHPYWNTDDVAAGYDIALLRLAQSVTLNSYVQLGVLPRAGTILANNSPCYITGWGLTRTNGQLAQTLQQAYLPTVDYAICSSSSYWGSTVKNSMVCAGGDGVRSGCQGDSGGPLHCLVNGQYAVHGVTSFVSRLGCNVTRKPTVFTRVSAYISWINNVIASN

Take `CCCCCCCC[C@@H]1NC(=O)[C@@H]2CCCN2C(=O)[C@H]2CCCN2C(=O)[C@H](CO)NC(=O)[C@H](CCCCN)NC(=O)[C@H](CCC(N)=O)NC(=O)[C@@H]2CCCN2C(=O)[C@@H]2CCCN2C(=O)[C@H]([C@@H](C)CC)NC(=O)[C@H](CO)NC(=O)[C@H](C)NC(=O)[C@H]([C@@H](C)O)NC(=O)[C@H](CCC(=O)O)NC1=O` [Example 3, Cyclo(-OctGly-Glu-Thr-Ala-Ser-Ile-Pro-Pro-Gln-Lys-Ser-^DPro-Pro-)] (cyclo([Gly(octyl)]ETASIPPQKS[dP]P)): at human proteinase 3, the IC50 is 1440 nM and the hNE/hPr3 selectivity stood at 262. For the same molecule, the IC50 in test [1] stood at 5.5 nM. Also, in test [2], the half-maximal inhibitory concentration (IC50) amounted to 790 nM and the hNE/PPE selectivity came out at 144.

Regarding `CC[C@H](C)[C@@H]1NC(=O)[C@H](CO)NC(=O)[C@H](C)NC(=O)[C@H]([C@@H](C)O)NC(=O)[C@H](CCC(=O)O)NC(=O)[C@H](CCCNC(=N)N)NC(=O)[C@@H]2CCCN2C(=O)[C@H]2CCCN2C(=O)[C@H](CCC(C)C)NC(=O)[C@H](CCCCN)NC(=O)[C@H](CCC(N)=O)NC(=O)[C@@H]2CCCN2C(=O)[C@@H]2CCCN2C1=O` [Example 10, Cyclo(-Arg-Glu-Thr-Ala-Ser-Ile-Pro-Pro-Gln-Lys-hLeu-^DPro-Pro-)] (cyclo(RETASIPPQK[hLeu][dP]P)), on human proteinase 3, the IC50 is greater than 100000 nM and the hNE/hPr3 selectivity was greater than 3333. Besides, the IC50 in test [1] worked out at 30 nM. In addition, in test [2], the IC50 was greater than 100000 nM and the hNE/PPE selectivity is greater than 3333.

In the case of `CC[C@H](C)[C@@H]1NC(=O)[C@H](CO)NC(=O)[C@H](C)NC(=O)[C@H]([C@@H](C)O)NC(=O)[C@H](CCC(=O)O)NC(=O)[C@H](CCCNC(=N)N)NC(=O)[C@@H]2CCCN2C(=O)[C@H]2CCCN2C(=O)[C@H](Cc2c[nH]cn2)NC(=O)[C@H](CCCCN)NC(=O)[C@H](Cc2ccc(O)cc2)NC(=O)[C@@H]2CCCN2C(=O)[C@@H]2CCCN2C1=O` [Example 14, Cyclo(-Arg-Glu-Thr-Ala-Ser-Ile-Pro-Pro-Tyr-Lys-His-^DPro-Pro-)] (cyclo(RETASIPPYKH[dP]P)), on human proteinase 3, the half-maximal inhibitory concentration (IC50) worked out at 77600 nM and the hNE/hPr3 selectivity amounted to 3823. Also, the IC50 in test [1] amounted to 20.3 nM. Besides, in test [2], the IC50 worked out at 4650 nM and the hNE/PPE selectivity was found to be 229.

In the case of `CC[C@H](C)[C@@H]1NC(=O)[C@H](CO)NC(=O)[C@H](C)NC(=O)[C@H]([C@@H](C)O)NC(=O)[C@H](CCc2ccc(O)cc2)NC(=O)[C@H](CCCNC(=N)N)NC(=O)[C@@H]2CCCN2C(=O)[C@H]2CCCN2C(=O)[C@H](Cc2ccc(O)cc2)NC(=O)[C@H](CCCCN)NC(=O)[C@H](CCC(N)=O)NC(=O)[C@@H]2CCCN2C(=O)[C@@H]2CCCN2C1=O` [Example 5, Cyclo(-Arg-hTyr-Thr-Ala-Ser-Ile-Pro-Pro-Gln-Lys-Tyr-^DPro-Pro-)] (cyclo(R[hTyr]TASIPPQKY[dP]P)), at human proteinase 3, the IC50 was determined as 1710 nM and the hNE/hPr3 selectivity is reported as 135. Besides, the IC50 in test [1] came to 12.7 nM. Further, in test [2], the IC50 worked out at 1750 nM and the hNE/PPE selectivity is listed as 138.

With `CCCCCCCC[C@@H]1NC(=O)[C@@H]2CCCN2C(=O)[C@H]2CCCN2C(=O)[C@H]([C@@H](C)O)NC(=O)[C@H](CCCCN)NC(=O)[C@H](CCC(N)=O)NC(=O)[C@@H]2CCCN2C(=O)[C@@H]2CCCN2C(=O)[C@H]([C@@H](C)CC)NC(=O)[C@H](CO)NC(=O)[C@H](C)NC(=O)[C@H]([C@@H](C)O)NC(=O)[C@H](CCC(=O)O)NC1=O` [Example 4, Cyclo(-OctGly-Glu-Thr-Ala-Ser-Ile-Pro-Pro-Gln-Lys-Thr-^DPro-Pro-)] (cyclo([Gly(octyl)]ETASIPPQKT[dP]P)), on human proteinase 3, the IC50 came out at 2150 nM and the hNE/hPr3 selectivity is on record as 272. Besides, the IC50 in test [1] is 7.9 nM. Moreover, in test [2], the IC50 was determined as 2750 nM and the hNE/PPE selectivity amounted to 348.

On to `CC[C@H](C)[C@@H]1NC(=O)[C@H](CO)NC(=O)[C@H](C)NC(=O)[C@H]([C@@H](C)O)NC(=O)[C@H](CCC(=O)O)NC(=O)[C@H](CCCNC(=N)N)NC(=O)[C@@H]2CCCN2C(=O)[C@H]2CCCN2C(=O)[C@H](CO)NC(=O)[C@H](CCCCN)NC(=O)[C@H](Cc2ccc(O)cc2)NC(=O)[C@@H]2CCCN2C(=O)[C@@H]2CCCN2C1=O` [Example 8, Cyclo(-Arg-Glu-Thr-Ala-Ser-Ile-Pro-Pro-Tyr-Lys-Ser-^DPro-Pro-)] (cyclo(RETASIPPYKS[dP]P)), for which, at human proteinase 3, the IC50 amounted to 88100 nM and the hNE/hPr3 selectivity was 5372. For the same molecule, the IC50 in test [1] was 16.4 nM. Also, in test [2], the IC50 stood at 45200 nM and the hNE/PPE selectivity is reported as 2756.

Regarding `CC[C@H](C)[C@@H]1NC(=O)[C@H](CO)NC(=O)[C@H](C)NC(=O)[C@H]([C@@H](C)O)NC(=O)[C@H](C(C)C)NC(=O)[C@H](CCCNC(=N)N)NC(=O)[C@@H]2CCCN2C(=O)[C@H]2CCCN2C(=O)[C@H]([C@@H](C)O)NC(=O)[C@H](CCCCN)NC(=O)[C@H](CCC(N)=O)NC(=O)[C@@H]2CCCN2C(=O)[C@@H]2CCCN2C1=O` [Example 16, Cyclo(-Arg-Val-Thr-Ala-Ser-Ile-Pro-Pro-Gln-Lys-Thr-^DPro-Pro-)] (cyclo(RVTASIPPQKT[dP]P)), on human proteinase 3, the half-maximal inhibitory concentration (IC50) is greater than 100000 nM and the hNE/hPr3 selectivity was greater than 3788. Also, the IC50 in test [1] stood at 26.4 nM. In addition, in test [2], the IC50 is greater than 100000 nM and the hNE/PPE selectivity is recorded as greater than 3788.

As for `CC[C@H](C)[C@@H]1NC(=O)[C@H](CO)NC(=O)[C@H](C)NC(=O)[C@H]([C@@H](C)O)NC(=O)[C@H](CCc2ccc(O)cc2)NC(=O)[C@H](CCCNC(=N)N)NC(=O)[C@@H]2CCCN2C(=O)[C@H]2CCCN2C(=O)[C@H]([C@@H](C)O)NC(=O)[C@H](CCCCN)NC(=O)[C@H](CCC(N)=O)NC(=O)[C@@H]2CCCN2C(=O)[C@@H]2CCCN2C1=O` [Example 17, Cyclo(-Arg-hTyr-Thr-Ala-Ser-Ile-Pro-Pro-Gln-Lys-Thr-^DPro-Pro-)] (cyclo(R[hTyr]TASIPPQKT[dP]P)), on human proteinase 3, the IC50 turned out to be 83900 nM and the hNE/hPr3 selectivity was 5378. In addition, the IC50 in test [1] turned out to be 15.6 nM. Moreover, in test [2], the IC50 was 66400 nM and the hNE/PPE selectivity is 4256.

In the case of `C=CC[C@@H]1NC(=O)[C@H]([C@@H](C)O)NC(=O)[C@H](CCC(=O)O)NC(=O)[C@H](CCCNC(=N)N)NC(=O)[C@@H]2CCCN2C(=O)[C@H]2CCCN2C(=O)[C@H]([C@@H](C)O)NC(=O)[C@H](CCCCN)NC(=O)[C@H](CCC(N)=O)NC(=O)[C@@H]2CCCN2C(=O)[C@@H]2CCCN2C(=O)[C@H]([C@@H](C)CC)NC(=O)[C@H](CO)NC1=O` [Example 7, Cyclo(-Arg-Glu-Thr-AllylGly-Ser-Ile-Pro-Pro-Gln-Lys-Thr-^DPro-Pro-)] (cyclo(RET[AllylGly]SIPPQKT[dP]P)), the figures for the IC50 (at human proteinase 3; in test [1]; in test [2]) were 80200 nM, 14.9 nM and 59000 nM, respectively. Besides, the hNE/hPr3 selectivity on human proteinase 3 was 5383. Further, in test [2], the hNE/PPE selectivity is 3960.
